Consider 21 molecules from patent US8785429B2, “Dihydropyrrolonaphthyridinone compounds as inhibitors of JAK” (Takeda Pharmaceutical Company Limited, priority 2009, dated 2014).

The target of one assay is T1, JAK2 (Homo sapiens, UniProt O60674).
T1 construct: purchased Invitrogen
Description: Assay for JAK2 Inhibition (phosphorylation of FAM-labeled substrate, Caliper LC-3000). The conditions noted are these: −log10(IC50), IC50 is the molar concentration at 50% inhibition; read-out: JAK2 pIC50 (converted). The format is biochemical.

A further assay addresses T2, JAK3 (Homo sapiens, UniProt P52333).
T2 construct: purchased Invitrogen
T2 sequence (P52333 1-1124): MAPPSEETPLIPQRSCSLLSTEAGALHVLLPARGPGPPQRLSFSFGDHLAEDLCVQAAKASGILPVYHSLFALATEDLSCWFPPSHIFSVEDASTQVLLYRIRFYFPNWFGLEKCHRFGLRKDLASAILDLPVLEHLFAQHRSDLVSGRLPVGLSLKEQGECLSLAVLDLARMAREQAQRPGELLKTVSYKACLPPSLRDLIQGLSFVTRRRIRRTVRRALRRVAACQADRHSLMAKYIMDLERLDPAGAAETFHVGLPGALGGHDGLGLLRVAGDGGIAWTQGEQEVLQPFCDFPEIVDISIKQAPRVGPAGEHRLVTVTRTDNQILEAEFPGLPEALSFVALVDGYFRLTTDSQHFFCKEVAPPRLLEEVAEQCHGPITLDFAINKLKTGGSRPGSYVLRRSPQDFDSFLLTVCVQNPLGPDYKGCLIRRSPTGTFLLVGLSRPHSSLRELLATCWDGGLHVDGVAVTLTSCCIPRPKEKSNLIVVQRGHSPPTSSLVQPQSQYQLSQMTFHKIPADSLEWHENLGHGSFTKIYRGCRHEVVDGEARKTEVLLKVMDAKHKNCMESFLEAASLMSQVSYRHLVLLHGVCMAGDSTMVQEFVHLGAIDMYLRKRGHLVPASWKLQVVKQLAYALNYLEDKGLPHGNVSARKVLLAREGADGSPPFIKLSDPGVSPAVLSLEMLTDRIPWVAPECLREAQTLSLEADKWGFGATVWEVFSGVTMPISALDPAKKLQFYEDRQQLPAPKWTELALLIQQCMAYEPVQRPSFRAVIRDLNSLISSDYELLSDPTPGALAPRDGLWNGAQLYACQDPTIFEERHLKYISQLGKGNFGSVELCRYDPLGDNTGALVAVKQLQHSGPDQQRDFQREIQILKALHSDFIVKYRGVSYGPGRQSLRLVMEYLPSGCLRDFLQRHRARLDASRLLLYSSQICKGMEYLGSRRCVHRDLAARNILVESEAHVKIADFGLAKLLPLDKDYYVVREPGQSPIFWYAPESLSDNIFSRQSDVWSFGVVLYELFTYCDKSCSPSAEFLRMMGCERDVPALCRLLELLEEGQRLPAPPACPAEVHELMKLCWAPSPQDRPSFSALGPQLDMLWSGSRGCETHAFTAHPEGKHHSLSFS
Description: Assay for JAK3 Inhibition (phosphorylation of FAM-labeled substrate, Caliper LC-3000). The format is biochemical. Conditions: −log10(IC50), IC50 is the molar concentration at 50% inhibition; read-out: JAK3 pIC50 (converted).

T1 sequence (O60674 whole entry): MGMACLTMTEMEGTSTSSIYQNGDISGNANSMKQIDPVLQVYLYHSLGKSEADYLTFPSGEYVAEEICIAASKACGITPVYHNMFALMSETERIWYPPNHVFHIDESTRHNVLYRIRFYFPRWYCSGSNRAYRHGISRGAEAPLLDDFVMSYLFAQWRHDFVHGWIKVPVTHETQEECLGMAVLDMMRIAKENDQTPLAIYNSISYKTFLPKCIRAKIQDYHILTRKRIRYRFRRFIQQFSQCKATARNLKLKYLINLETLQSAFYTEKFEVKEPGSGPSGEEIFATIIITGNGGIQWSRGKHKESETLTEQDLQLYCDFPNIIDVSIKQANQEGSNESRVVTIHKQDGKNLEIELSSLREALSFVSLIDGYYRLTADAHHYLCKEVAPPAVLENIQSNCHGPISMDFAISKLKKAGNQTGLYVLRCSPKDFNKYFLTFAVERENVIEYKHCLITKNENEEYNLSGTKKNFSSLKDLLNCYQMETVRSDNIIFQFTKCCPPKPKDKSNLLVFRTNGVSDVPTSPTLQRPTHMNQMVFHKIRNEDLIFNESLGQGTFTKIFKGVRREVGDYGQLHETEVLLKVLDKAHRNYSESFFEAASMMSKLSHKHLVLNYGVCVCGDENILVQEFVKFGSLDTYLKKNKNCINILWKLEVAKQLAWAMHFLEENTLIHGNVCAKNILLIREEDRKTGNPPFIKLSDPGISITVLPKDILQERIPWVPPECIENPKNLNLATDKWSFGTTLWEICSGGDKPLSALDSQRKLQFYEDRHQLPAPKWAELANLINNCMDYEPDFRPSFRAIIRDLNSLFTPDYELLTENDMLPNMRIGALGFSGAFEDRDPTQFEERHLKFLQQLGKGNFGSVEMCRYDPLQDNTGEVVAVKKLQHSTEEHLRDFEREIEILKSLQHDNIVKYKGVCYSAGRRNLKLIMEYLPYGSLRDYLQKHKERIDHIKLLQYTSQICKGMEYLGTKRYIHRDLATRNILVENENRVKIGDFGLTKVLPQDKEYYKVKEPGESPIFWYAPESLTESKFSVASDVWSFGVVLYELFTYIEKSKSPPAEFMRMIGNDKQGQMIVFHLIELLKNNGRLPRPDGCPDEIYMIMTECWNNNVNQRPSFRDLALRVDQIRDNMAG

As for `CC(C)[C@H](C(=O)N1C[C@@H](F)C[C@H]1C#N)N1Cc2c(Cl)cnc3[nH]cc(c23)C1=O` [Example 86, (2S,4S)-1-((R)-2-(6-chloro-3-oxopyrrolo[4,3,2-de][2,6]naphthyridin-4(1H,3H,5H)-yl)-3-methylbutanoyl)-4-fluoropyrrolidine-2-carbonitrile], the IC50 is 398 nM at JAK2 and 25.1 nM at JAK3.
On to `CC[C@H](C(=O)N1CCN(c2ccccn2)CC1)N1Cc2ccnc3[nH]cc(c23)C1=O` [Example 64, (R)-4-(1-oxo-1-(4-(pyridin-2-yl)piperazin-1-yl)butan-2-yl)-4,5-dihydropyrrolo[4,3,2-de][2,6]naphthyridin-3(1 H)-one], for which the IC50 on JAK2 was 20000 nM; on JAK3, 2510 nM.
On the same counts, the results for `O=C(NC1CCCC1)[C@@H](C1CC1)N1Cc2ccnc3[nH]cc(c23)C1=O` [Example 25, (R)—N-cyclopentyl-2-cyclopropyl-2-(3-oxopyrrolo[4,3,2-de][2,6]naphthyridin-4(1H,3H,5H)-yl)acetamide] are 1580 nM and 200 nM.
The corresponding values for `CC(C)[C@H](C(=O)NC1CCOC1)N1Cc2c(F)cnc3[nH]cc(c23)C1=O` (stereo partly drawn) [Example 44, (2R)-2-(6-fluoro-3-oxopyrrolo[4,3,2-de][2,6]naphthyridin-4(1H,3H,5H)-yl)-3-methyl-N-(tetrahydrofuran-3-yl)butanamide] are 1580 nM and 126 nM.
On the same counts, the results for `CC(C)[C@H](C(=O)N1CC(C#N)(CF)C1)N1Cc2ccnc3[nH]cc(c23)C1=O` [Example 51, (R)-3-(fluoromethyl)-1-(3-methyl-2-(3-oxopyrrolo[4,3,2-de][2,6]naphthyridin-4(1H,3H,5H)-yl)butanoyl)azetidine-3-carbonitrile] are 158 nM and 5.01 nM.
On to `CC(C)[C@H](C(=O)NC1CCS(=O)(=O)CC1)N1Cc2c(F)cnc3[nH]cc(c23)C1=O` [Example 47, (R)—N-(1,1-dioxidotetrahydro-2H-thiopyran-4-yl)-2-(6-fluoro-3-oxopyrrolo[4,3,2-de][2,6]naphthyridin-4(1H,3H,5H)-yl)-3-methylbutanamide], for which the values for the IC50 at JAK2 and on JAK3 were 2510 nM and 126 nM, respectively.
The corresponding values for `CCC1(N2Cc3c[nH]c4nccc(c34)C2=O)CCN(c2ccncn2)CC1` [Example 17, 4-(4-ethyl-1-(pyrimidin-4-yl)piperidin-4-yl)-3,4-dihydropyrrolo[4,3,2-de][2,6]naphthyridin-5(1H)-one] are 5.01 nM and 12.6 nM.
With `CC(C)(C)[C@H](C(=O)NCC#N)N1Cc2ccnc3[nH]cc(c23)C1=O` [Example 83, (R)—N-(cyanomethyl)-3,3-dimethyl-2-(3-oxopyrrolo[4,3,2-de][2,6]naphthyridin-4(1H,3H,5H)-yl)butanamide], the IC50 at JAK2 is 251 nM; on JAK3 it was 12.6 nM.
Regarding `CC(C)[C@H](C(=O)NC1CCCC1)N1Cc2ccnc3[nH]cc(c23)C1=O` [Example 22, (R)—N-cyclopentyl-3-methyl-2-(3-oxopyrrolo[4,3,2-de][2,6]naphthyridin-4(1H,3H,5H)-yl)butanamide], the IC50 was 631 nM on JAK2 and 31.6 nM on JAK3.
On to `CC[C@H](C(=O)N1CCOCC1)N1Cc2ccnc3[nH]cc(c23)C1=O` [Example 54, (R)-4-(1-morpholino-1-oxobutan-2-yl)-4,5-dihydropyrrolo[4,3,2-de][2,6]naphthyridin-3(1 H)-one], for which the IC50 at JAK2 was 31600 nM; at JAK3, 2000 nM.
As for `CCC(=O)N1CCC(CC)(N2Cc3c[nH]c4nccc(c34)C2=O)CC1` [Example 16, 4-(4-ethyl-1-propionylpiperidin-4-yl)-3,4-dihydropyrrolo[4,3,2-de][2,6]naphthyridin-5(1H)-one], the IC50 at JAK2 was 10 nM; on JAK3, 50.1 nM.
As for `O=C(NC1CCCC1)[C@@H](CC(F)(F)F)N1Cc2ccnc3[nH]cc(c23)C1=O` [Example 28, (R)—N-cyclopentyl-4,4,4-trifluoro-2-(3-oxopyrrolo[4,3,2-de][2,6]naphthyridin-4(1H,3H,5H)-yl)butanamide], the IC50 at JAK2 is 10000 nM; at JAK3 it was 398 nM.
Regarding `CC(C)[C@H](C(=O)N1CC(C)(C#N)C1)N1Cc2c(F)cnc3[nH]cc(c23)C1=O` [Example 52, (R)-1-(2-(6-fluoro-3-oxopyrrolo[4,3,2-de][2,6]naphthyridin-4(1H,3H,5H)-yl)-3-methylbutanoyl)-3-methylazetidine-3-carbonitrile], the IC50 at JAK2 is 200 nM; on JAK3 it was 10 nM.
As to `CC(C)[C@H](C(=O)N1CC(C)(C#N)C1)N1Cc2ccnc3[nH]cc(c23)C1=O` [Example 53, (R)-3-methyl-1-(3-methyl-2-(3-oxopyrrolo[4,3,2-de][2,6]naphthyridin-4(1H,3H,5H)-yl)butanoyl)azetidine-3-carbonitrile], the values for the IC50 on JAK2 and at JAK3 were 251 nM and 12.6 nM, respectively.
Consider `CC[C@H](C(=O)N1CCCC1)N1Cc2ccnc3[nH]cc(c23)C1=O` [Example 19, (R)-4-(1-oxo-1-(pyrrolidin-1-yl)butan-2-yl)-4,5-dihydropyrrolo[4,3,2-de][2,6]naphthyridin-3(1H)-one], for which the figures for the IC50 at JAK2 and at JAK3 were 3980 nM and 316 nM, respectively.
As to `CC(C)[C@H](C(=O)N1CCC[C@@H]1C#N)N1Cc2c(Cl)cnc3[nH]cc(c23)C1=O` [Example 85, (R)-1-((R)-2-(6-chloro-3-oxopyrrolo[4,3,2-de][2,6]naphthyridin-4(1H,3H,5H)-yl)-3-methylbutanoyl)pyrrolidine-2-carbonitrile], the IC50 at JAK2 is 1580 nM; on JAK3, 100 nM.
As for `CC[C@H](C(=O)N1CCN(S(C)(=O)=O)CC1)N1Cc2ccnc3[nH]cc(c23)C1=O` [Example 63, (R)-4-(1-(4-(methylsulfonyl)piperazin-1-yl)-1-oxobutan-2-yl)-4,5-dihydropyrrolo[4,3,2-de][2,6]naphthyridin-3(1 H)-one], the IC50 on JAK2 was 6310 nM; on JAK3, 631 nM.
Regarding `N#CCC(=O)N1CCC(N2Cc3c[nH]c4nccc(c34)C2=O)CC1` [Example 3, 3-oxo-3-(4-(5-oxopyrrolo[4,3,2-de][2,6]naphthyridin-4(1H,3H,5H)-yl)piperidin-1-yl)propanenitrile], the IC50 is 794 nM on JAK2 and 1580 nM at JAK3.
On the same counts, the results for `CC(C)[C@H](C(=O)N1CC(C#N)C1)N1Cc2ccnc3[nH]cc(c23)C1=O` [Example 81, (R)-1-(3-methyl-2-(3-oxopyrrolo[4,3,2-de][2,6]naphthyridin-4(1H,3H,5H)-yl)butanoyl)azetidine-3-carbonitrile] are 126 nM and 5.01 nM.
For `CC[C@H](C(=O)NC(C)CO)N1Cc2ccnc3[nH]cc(c23)C1=O` (stereo partly drawn) [Example 69, (2R)—N-(1-hydroxypropan-2-yl)-2-(3-oxopyrrolo[4,3,2-de][2,6]naphthyridin-4(1H,3H,5H)-yl)butanamide], the results for the IC50 on JAK2 and at JAK3 were 10000 nM and 631 nM, respectively.
On the same counts, the results for `CC[C@@H](CC#N)NC(=O)[C@@H](C(C)C)N1Cc2c(Cl)cnc3[nH]cc(c23)C1=O` [Example 37, (R)-2-(6-chloro-3-oxopyrrolo[4,3,2-de][2,6]naphthyridin-4(1H,3H,5H)-yl)-N—((S)-1-cyanobutan-2-yl)-3-methylbutanamide] are 1580 nM and 63.1 nM.
